Laboratory results as given in US20060105940A1, “Compound useful in the treatment or prevention of cognitive disorders associated with diabetes and associated methods” (Axonyx, Inc., priority 2004, published 2006).
Structures can show the parent of a compound that is named as a salt. Where two headings read alike, the source gives them in different places.

Tests used:
human AChE [1] = target: T1, human AChE (Homo sapiens, UniProt P22303); conditions: human AChE freshly prepared from human erythrocytes; see Greig et al. page 78; cited from earlier work
T1 construct: use human BChE and AChE freshly prepared from human plasma and erythrocytes, respectively; from tissue; host or cells: human erythrocytes
T1 sequence (P22303 32-617 isoform P22303-2 limits assumed): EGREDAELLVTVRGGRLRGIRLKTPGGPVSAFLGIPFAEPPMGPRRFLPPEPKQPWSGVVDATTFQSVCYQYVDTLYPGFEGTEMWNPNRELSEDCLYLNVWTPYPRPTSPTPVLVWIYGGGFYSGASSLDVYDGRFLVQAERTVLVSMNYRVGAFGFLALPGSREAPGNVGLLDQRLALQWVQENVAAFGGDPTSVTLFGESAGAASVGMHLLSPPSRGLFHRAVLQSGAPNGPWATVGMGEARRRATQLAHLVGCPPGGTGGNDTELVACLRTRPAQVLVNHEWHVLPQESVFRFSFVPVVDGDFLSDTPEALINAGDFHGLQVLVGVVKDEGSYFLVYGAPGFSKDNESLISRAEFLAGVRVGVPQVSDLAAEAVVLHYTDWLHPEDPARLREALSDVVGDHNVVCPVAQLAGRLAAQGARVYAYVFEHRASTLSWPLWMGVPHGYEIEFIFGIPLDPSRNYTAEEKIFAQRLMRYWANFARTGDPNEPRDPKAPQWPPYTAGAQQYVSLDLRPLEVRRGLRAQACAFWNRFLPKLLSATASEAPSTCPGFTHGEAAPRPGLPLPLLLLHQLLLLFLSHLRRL

[2] = Solubility in water / aqueous solution; type: physicochemical; conditions: for Solubility (in words): aqueous solution, free base versus tartrate acid addition salt
human BChE [3] = target: T2, human BChE (Homo sapiens, UniProt P06276); conditions: human BChE freshly prepared from human plasma; see Greig et al. page 78; cited from earlier work
T2 construct: use human BChE and AChE freshly prepared from human plasma and erythrocytes, respectively; from tissue; host or cells: human plasma
T2 sequence (P06276 29-602): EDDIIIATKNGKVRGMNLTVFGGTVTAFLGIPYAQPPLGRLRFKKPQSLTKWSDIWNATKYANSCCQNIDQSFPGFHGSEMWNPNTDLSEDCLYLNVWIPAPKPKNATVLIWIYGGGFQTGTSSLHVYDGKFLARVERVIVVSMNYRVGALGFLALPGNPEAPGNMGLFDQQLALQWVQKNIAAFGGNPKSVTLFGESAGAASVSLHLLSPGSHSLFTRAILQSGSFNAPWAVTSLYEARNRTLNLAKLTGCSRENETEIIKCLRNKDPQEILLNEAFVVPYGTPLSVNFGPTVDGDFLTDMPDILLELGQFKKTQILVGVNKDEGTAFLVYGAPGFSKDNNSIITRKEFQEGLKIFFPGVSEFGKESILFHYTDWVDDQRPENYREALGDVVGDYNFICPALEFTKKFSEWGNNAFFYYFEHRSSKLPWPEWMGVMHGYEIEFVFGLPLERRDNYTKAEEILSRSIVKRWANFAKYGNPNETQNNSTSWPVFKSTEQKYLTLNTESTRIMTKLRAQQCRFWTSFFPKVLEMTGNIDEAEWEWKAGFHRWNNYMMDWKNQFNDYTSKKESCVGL

[4] = test system: aged (24-26-month-old) Fischer-344 rats; conditions: Stone 14-unit T-maze, Greig et al. 2003; cited from earlier work
[5] = test system: aged (21-22 month old) Fisher-344 rats; test: Stone maze cognitive ability test after i.p. MHI tartrate (Example VII); type: in vivo, rat; conditions: 0.5 to 1.0 mg per kg intraperitoneal, daily, aged Fisher-344 rats
Protocol: (See U.S. Pat. No. 6,683,105). MHI tartrate is administered in dosages in the range of 0.5 to 1.0 mg per kg of subject body weight. This dosage is administered daily, for example, 1-3 times per day. Effectiveness of MHI tartrate is measured by testing cognitive ability before and after administration. For instance, rats may be tested using a “Stone maze” in which a maze constructed of translucent plastic containing a grid floor wired for scrambled foot shocks surrounded by opaque gray walls to minimize effects of non-MHI tartrate related variables. Rats are given 10 seconds in which to navigate the maze. […] Similar cognitive tests, for instance timed, objective memorization tests, may be used on other subjects, such as humans.

human AChE [6] = target: T1, human AChE; test: Inhibition of human erythrocyte AChE activity (IC50); type: biochemical; conditions: human AChE freshly prepared from human erythrocytes
Source text: (§1) Potential cholinesterase agents may be evaluated for potency in vitro by assaying its inhibitory effect on electric eel and human red blood cell ACHE and human plasma BCHE activity in cell-free extracts (See U.S. Pat. Nos. 6,495,700; 5,409,948; 5,171,750; 5,378,723; and 5,998,460). Studies also commonly utilize aged rat models to evaluate effectiveness of therapeutic drug leads in ameliorating cognitive disorders. […] (See, Greig, N. H. et al. “Butyrylcholinesterase: Its Function and Inhibition.” (ed., Giacobini, E.) Martin Dunitz, Ltd., London, 69-90, 2003, Chapter 6: Butyrylcholinesterase: its selective inhibition and relevance to Alzheimer's disease therapy at pages 80-81).
(§2) (See, Greig, N. H. et al. at page 78). These biological activity assays use human BChE and AChE freshly prepared from human plasma and erythrocytes, respectively.
(§3) These biological activity assays use human BChE and AChE freshly prepared from human plasma and erythrocytes, respectively.

human BChE [7] = target: T2, human BChE; test: Inhibition of human plasma BChE activity (IC50); type: biochemical; conditions: human BChE freshly prepared from human plasma
Source text: as §1, §2, §3

SMILES	IC50 (human AChE [1])	Solubility ([2]; listed as MHI)	Solubility (g per 100 ml Saturated H2O solution at room temperature) [2]	IC50 (human BChE [3])	Augmenting memory processing [4]	Solubility (in words) [2]	Cognitive ability (maze navigation) [5]	IC50 (human AChE [6])	IC50 (human BChE [7])
CC(C)c1ccc(NC(=O)Oc2ccc3c(c2)C2(C)CCNC2N3)cc1 (single isomer, unassigned; (-)) [MHI (Base)]	110 ± 15 nM	about 0.0005 g/ml	0.05 g g per 100 ml	1 ± 0.1 nM	potent in augmenting memory processing				
CC(C)c1ccc(NC(=O)Oc2ccc3c(c2)C2(C)CCNC2N3)cc1 [MHI tartrate, tartrate acid addition salt of the compound (−)-(3aS)-3a-methyl-1,2,3,3a,8,8a-hexahydropyrrolo-[2,3-b]indol-5-yl N-4′-isopropylphenylcarbamate]			1 g g per 100 ml			highly soluble	increase cognitive ability	110 ± 15 nM	1 ± 0.1 nM
CC(C)c1ccc(NC(=O)Oc2ccc3c(c2)[C@]2(C)CCN(CCc4ccccc4)[C@@H]2N3C)cc1 [phenethylcymserine, reference compound]						insoluble			
